The values below are quoted from earlier work in patent publication US20220202720A1, “SUSTAINED RELEASE C[…] AND METHOD OF PREPARATION THEREOF” (PHARMATHEN S.A., priority 2019, published 2022).

The target of the data set is recombinant μ-opioid receptor (Homo sapiens, UniProt P35372).
Chain of recombinant μ-opioid receptor (P35372 whole entry, species assumed): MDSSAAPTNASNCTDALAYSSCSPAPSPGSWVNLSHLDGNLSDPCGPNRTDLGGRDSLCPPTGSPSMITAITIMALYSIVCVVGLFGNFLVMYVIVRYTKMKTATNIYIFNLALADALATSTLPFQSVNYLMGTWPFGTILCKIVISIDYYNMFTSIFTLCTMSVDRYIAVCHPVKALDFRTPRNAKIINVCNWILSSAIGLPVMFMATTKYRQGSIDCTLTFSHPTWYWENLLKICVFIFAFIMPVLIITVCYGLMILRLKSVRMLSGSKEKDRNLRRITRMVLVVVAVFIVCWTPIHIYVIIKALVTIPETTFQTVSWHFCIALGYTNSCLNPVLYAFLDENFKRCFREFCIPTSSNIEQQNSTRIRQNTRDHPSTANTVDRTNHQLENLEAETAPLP

Turning to `CC[C@@H](c1cccc(O)c1)[C@@H](C)CN(C)C` [Tapentadol], the “reduced affinity to recombinant μ-opioid receptor compared to morphine” value is listed as 18 times.
